For 91 molecules, melting point results are on record in a melting point compilation (Tetko et al.; mined from patent text by program, amines drawn as free bases though some values may be those of a salt).

SMILES strings stand for the structures.

In the case of `COC(=O)CN1CC(=O)NC1=NN=Cc1ccccc1`, the melting point (in general, the temperature, or range, at which the solid turns liquid) was in the range of 149 to 153 °C.

In turn, `Cc1cc(C(O)(C(F)(F)F)C(F)(F)F)cc(C)c1SCC(=O)O` came in with a melting point of 133 to 135 °C.

Take `COc1ccc2[nH]cc(C#N)c2c1`: the melting point amounted to 147 °C.

Molecule `CCC(=O)C(=Cc1cccc(C#N)c1)C(=O)CC` displayed a melting point of 51 to 52 °C.

`COc1cc(C2=NCCO2)cc(OC)c1C(C)=O` came in with a melting point of 135 to 137 °C.

For `NS(=O)(=O)c1ccccc1OC(F)(F)C(F)(F)F`, the melting point fell in the range of 145 to 146 °C.

The molecule `O=C(O)c1ccc2occ(-c3ccccc3)c2c1` displayed a melting point of 205 to 209 °C.

`Fc1cccc(F)c1-c1nnc(-c2c(F)cccc2F)nn1` registered a melting point of 214 °C.

Molecule `CC(C)(C)OC(=O)NCCON=C(C(=O)O)c1cccs1` showed a melting point of 113 to 114 °C.

Take `CC(=O)NCc1cn(-c2ccc(-n3cccc3)c(F)c2)nn1`: the melting point lay in the range of 210 to 215 °C.

`CCNc1cnc(-c2ccccc2)c(-c2ccccc2)n1`: the melting point was in the range of 121 to 123 °C.

In turn, `COC(=O)c1c(O)ccc(CNC(=O)CCCCCNC(=O)OC(C)(C)C)c1O` came in with a melting point of 73 to 76 °C.

`Cn1c(COc2ccc(CC3SC(=O)NC3=O)cc2)nc2ccc(Oc3ccc(NC(=O)C4CCCCC4)cc3)cc21` (stereo unspecified) came in with a melting point of 182 to 184 °C.

The molecule `O=C(NCCO)c1cc(-c2cccc3cc(Cc4cccc(C(F)(F)F)c4)sc23)ncn1` showed a melting point of 46 to 47 °C.

Turning to `C#CCNC(=NCCSCc1ccccn1)NC#N`, the melting point was 124 to 130 °C.

Molecule `CN(C)C1(c2ccccc2)CC=C(c2cn(S(=O)(=O)c3ccccc3)c3ccccc23)CC1` (stereo unspecified) returned a melting point of 165 to 167 °C.

In turn, `Fc1ccc(CCN2CCC(N3CCc4ccc(Br)cc43)CC2)cc1` yielded a melting point of 99 to 101 °C.

Consider `CC(C)c1cccc(C(C)C)c1NC(=O)C1c2ccccc2COc2ccc(C(=O)O)cc21` (stereo unspecified), for which the melting point lay in the range of 289 to 290 °C.

Turning to `FC(F)(F)c1ccc(-c2cc(C(F)(F)F)n3ncc(I)c3c2)cc1`, the melting point came out at 130 °C.

Take `CC1Cc2cc3c(cc2C(c2ccc([N+](=O)[O-])cc2)=NN1C(=O)CCCN)OCO3` (stereo unspecified): the melting point was 110 to 112 °C.

For `CC(=O)C1=C(O)C(=C(C)Nc2cccc(NS(=O)(=O)c3ccccc3)c2)C(=O)OC1=O`, the melting point is 209 °C.

As for `COC(=O)[C@H](CC(=O)O)NC(=O)c1cccc(NC(=O)c2ccc(C(=N)N)cc2)c1`, the melting point fell in the range of 248 to 249 °C.

The molecule `CC(C)Oc1ccc(C=O)c(Oc2ccc(Cl)cc2Cl)n1` had a melting point of 73 to 74 °C.

Take `O=C1COCCOCC(=O)NCCOCCOCCOCCN1`: the melting point lay in the range of 90 to 91 °C.

Regarding `Cn1c(=O)cc(-c2cccc(Cl)c2)c2cc(C(=O)c3ccc(Cl)cc3)ccc21`, the melting point was 155 °C.

As for `COc1c(/C=C/c2cc(/C=C/c3ccc4cc[nH]c4c3)n[nH]2)cccc1OCc1ccccn1`, the melting point was 109 to 114 °C.

The molecule `CC(C)(C)OC(=O)Nn1c(=O)cc2n(C3CC3)c3cc(N4CCN(C(=O)OC(C)(C)C)CC4)c(F)cc3n2c1=O` displayed a melting point of 219 to 220 °C.

The molecule `Cc1nc[nH]c1CSCCNC1=NCCS(=O)(=O)N1` came in with a melting point of 146 to 147 °C.

As to `CC(=CCCC(C)C1CCC2(C)C3=CCC4C(C)(C)C(=O)CCC4(C)C3=CCC12C)CO` (stereo unspecified), the melting point is 75 to 80 °C.

`CS(=O)(=O)Oc1ccc(-c2cc3ccc(OS(C)(=O)=O)cc3s2)cc1` came in with a melting point of 195 to 197 °C.

On to `N#CCCNC(=O)C1=CC(CF)(CF)Oc2ccc(Br)cc21`, for which the melting point fell in the range of 140 to 142 °C.

Take `Cc1cc(N)n(-c2c(Cl)cc(Cl)cc2Cl)n1`: the melting point lay in the range of 132 to 134 °C.

`CN1CCCC(C2=C(C#N)C(c3cccc(C#N)c3Br)c3c[nH]nc3N2)C1` (stereo unspecified) yielded a melting point of 174 °C.

The molecule `O=C(O)CCCNC(=O)c1cc(Br)no1` registered a melting point of 140 to 141 °C.

`CCN(CC)C(=O)C1CCN(Cc2cnc3cc(NC(=O)c4ccc(-c5ccc(F)cc5)cc4)c(C)cc3c2)CC1`: the melting point was 203 °C.

`CC(=O)OC1CCC2(C)C(CCC3C2CCC2(C)C3CCC2C(C)(O)C#N)C1` (stereo unspecified) registered a melting point of 168 to 178 °C.

For `O=C(N[C@H]1CC[C@H](CCN2CCN(c3nccc4c3CCO4)CC2)CC1)c1ccc(N2CCOCC2)nc1`, the melting point was determined as 222 °C.

Turning to `CC(=O)OC(C)C1CCC2C3CC=C4C=CCCC4(C)C3CCC12C` (stereo unspecified), the melting point was 103 to 104 °C.

In turn, `N#Cc1ccc(CO)cc1F` showed a melting point of 70 to 72 °C.

The molecule `COc1ccc(CSc2nnc(-c3ccc4occc4c3)o2)cc1F` had a melting point of 134 to 136 °C.

For the molecule `O=c1cccccc1N1CCN(c2cccc(C(F)(F)F)c2)CC1`, the melting point was 112 to 114 °C.

Molecule `CSc1ccc([N+](=O)[O-])cc1C(F)(F)F` yielded a melting point of 50 °C.

`CC(C)CCCC(C)C1CCC2C3CC4(OCCO4)C4CCCC(O)C4(C)C3CCC12C` (stereo unspecified): the melting point lay within 96 to 98 °C.

`C=C(c1ccc(-c2cc[nH]n2)cc1)C(O)(Cn1cncn1)c1ccc(F)cc1F` (stereo unspecified) came in with a melting point of 182 to 184 °C.

In turn, `O=C(CCCc1cccs1)NC(Cc1ccc(C(F)(F)F)cc1)C(=O)c1ccc(F)cc1` (stereo unspecified) came in with a melting point of 123 to 124 °C.

Turning to `COC(=O)c1ccc(CNC(=O)c2cccc(-c3nnn(Cc4ccc(OC)cc4)n3)c2)cc1`, the melting point was 167 to 168 °C.

Molecule `COc1ccc(-c2c(C)nc(N)nc2C2CCN(C(=O)c3ccccc3)CC2)cc1` displayed a melting point of 226 to 227 °C.

`CCCCCCCCCCC[C@@H](O)CC(=O)OCC(=O)c1ccc(Br)cc1` came in with a melting point of 109 to 110 °C.

In turn, `CCOC(=O)c1c(C)cc2nc(CO)n(-c3ccccc3C)c(=O)c2c1C` registered a melting point of 130 to 132 °C.

The molecule `O=c1[nH]c2ccc3c(c2[nH]c1=O)NCCC3` registered a melting point of more than 300 °C.

`COCn1c(C)nc2nc(O)cnc2c1=O` returned a melting point of 224 to 226 °C.

Turning to `OCCCc1cnoc1-c1ccc(Br)cc1`, the melting point fell in the range of 72 to 73 °C.

As for `O=C(O)CP(=O)(O)C(CCCc1ccccc1)NC(=O)c1ccccc1` (stereo unspecified), the melting point lay within 170 to 175 °C.

Regarding `CN(C)c1ncc(-c2ccc(Cl)cc2Cl)c(N)n1`, the melting point is 151 °C.

With `O=C(Nc1ccc(-n2nc(C3CC3)cc2C2CC2)cc1)c1c(F)cccc1F`, the melting point fell in the range of 158 to 163 °C.

As to `FC(F)(F)c1ccc(-c2cc(Oc3cncc4ccccc34)ncn2)cc1`, the melting point fell in the range of 206 to 211 °C.

Consider `O=C(O)c1cncc(O)c1`, for which the melting point was more than 260 °C.

`COC(=O)c1cccc(-c2noc(C)n2)c1` came in with a melting point of 81 °C.

With `O=c1c2ccccc2cc(Cl)n1-c1ccc(Cl)cc1`, the melting point lay in the range of 125 to 127 °C.

In turn, `CC(=O)NCc1ccc(CN2CCN(c3ccc(F)cc3NC(C)=O)CC2)cc1` registered a melting point of 148 to 150 °C.

As for `CCn1cc(C(=O)O)c(=O)c2cc(Cl)c(N3CCN(CCO)CC3)cc21`, the melting point stood at 215 °C.

`COc1ccc2[nH]c(-c3cccc(C)c3)cc(=O)c2c1` yielded a melting point of 262 to 264 °C.

The molecule `COc1ccc(-c2c(Cl)c(CCl)nc3cc(OC)c(OC)cc23)cc1OC` registered a melting point of 206 to 207 °C.

Take `CCOc1ccc(C2=NNC(=O)CC2)cc1OCC`: the melting point fell in the range of 142 to 143 °C.

As for `O=CNc1cccc(C(=NOC(=O)C(Cl)Cl)C(=O)O)n1`, the melting point lay within 88 to 90 °C.

As for `COC(=O)C(=C/c1cc(OC)c(OC)c(OC)c1)/C(=C\c1ccccc1)C(N)=O`, the melting point fell in the range of 144 to 146 °C.

`CCCc1cc(=O)oc2c(C(=O)CC)c(O)c3c(c12)OC(C)(C)C=C3` returned a melting point of 96 to 98 °C.

Molecule `N#CC=C1CCN(c2ccc(N3C[C@H](CNC(=O)CO)OC3=O)cc2F)CC1` came in with a melting point of 68 to 70 °C.

Take `N=C(NN=Cc1ccc(OC(F)C(F)(F)F)cc1)NN=Cc1ccc(OC(F)C(F)(F)F)cc1` (stereo unspecified): the melting point is 125 to 130 °C.

Regarding `CC(=O)Nc1cccc2c1C(=O)c1ccccc1C2=O`, the melting point stood at 221 °C.

`BrCCCN(c1ccccc1)c1ccccc1` came in with a melting point of 162 to 164 °C.

`Cc1cc2nc(C3(c4ccc(S(N)(=O)=O)cc4)C=C(C(F)(F)F)NN3)sc2cc1F` (stereo unspecified) yielded a melting point of 224 to 225 °C.

`Sc1nsnc1C12CN3CC1C2C3` displayed a melting point of 205 to 207 °C.

The molecule `CCCc1cccnc1N` gave a melting point of 25 to 27 °C.

Regarding `COc1ccc(C(=O)Nc2ccc(C(=O)N3CCOCC3)cc2)cc1C12CC3CC(CC(C3)C1)C2`, the melting point fell in the range of 238 to 241 °C.

For `COc1ccc(CC2SC(=O)NC2=O)c2ccc(=O)n(C)c12` (stereo unspecified), the melting point lay within 254 to 255 °C.

`CCOC(=O)NS(=O)(=O)c1c(C(=O)OCC)c(Cl)nn1C` registered a melting point of 82 to 85 °C.

Take `O=c1c(Br)c(OCc2ccc(F)c(F)c2)ccn1Cc1cccc(F)c1`: the melting point was 172 to 174 °C.

On to `CCCCC(=O)NC(C#N)C(=O)OCC` (stereo unspecified), for which the melting point came out at 88 °C.

In turn, `CN1CCC(c2cnn3c(-c4cccc(NC(=O)c5cccc(C(F)(F)F)c5)c4)ccnc23)CC1` displayed a melting point of 183 to 185 °C.

The molecule `Cc1cc(S(=O)(=O)N2c3cc(F)ccc3-n3cccc3C2C)ccc1O` (stereo unspecified) showed a melting point of 191 to 193 °C.

The molecule `Cc1c(-c2ccccc2)oc2c(C#N)cccc12` came in with a melting point of 86 to 87 °C.

`CC=NN(C)C1=NOCc2ccc(Cl)cc21` came in with a melting point of 111 to 112 °C.

Turning to `CCOC(=O)c1cc2c(C(F)(F)F)cc(OCC(=O)OC(C)(C)C)cc2n1C`, the melting point lay within 98 to 100 °C.

The molecule `C[C@H]1N=C(c2ccccc2F)c2cc([N+](=O)[O-])ccc2NC1=O` returned a melting point of 120 °C.

In turn, `CSc1ccc2c(C3=C(c4cn(C)c5cc([N+](=O)[O-])ccc45)C(=O)NC3=O)cn(C)c2c1` gave a melting point of 273 to 275 °C.

In turn, `Cc1c(C(=O)Nc2ccc(N3CCN(CCO)CC3)c(C#N)c2)cnn1-c1ccc(F)cc1F` came in with a melting point of 149 to 151 °C.

As to `C1CCN(ON2CCCC2)C1`, the melting point is 99 °C.

In turn, `CCn1c2c(c3ccccc31)CCSC2(C)CCN(C)C` (stereo unspecified) returned a melting point of 86 to 88 °C.

In turn, `C1=C(c2ccc3ccccc3c2)CCN(Cc2c[nH]c3ncccc23)C1` registered a melting point of 223 to 225 °C.

For the molecule `O=C(Nc1cccc(S(=O)(=O)NCCO)c1)c1cnn2c(C(F)F)cc(-c3ccc(C(F)(F)F)cc3)nc12`, the melting point came out at 231 °C.
